From US12661345B2, “Compositions for the treatment of hypertension” (The George Institute for Global Health, priority 2017, dated 2026)

System: participants with migraine
Assay: Safety: serious adverse events and adverse events of special interest in the 3×3 factorial trial
[1] = Anytime between Week 0 to Week 12, % of participants
[2] = Anytime between Week 0 to Week 12, n/N participants
[3] = Randomization, % of participants
[4] = Randomization, n/N participants

In the case of CCC(C)(C)C(=O)O[C@H]1C[C@@H](C)C=C2C=C[C@H](C)[C@H](CC[C@@H]3C[C@@H](O)CC(=O)O3)[C@H]21 [Simvastatin, simvastatin], the “Subjects with any serious adverse event (SAE) in 12 weeks (n/N)” value (12 weeks) is reported as 0/9, the “Subjects with any serious adverse event (SAE) in 12 weeks (percent)” value (12 weeks) is reported as 0.0% and the “Any SAEs” value [1] is reported as “(0.0%)”. The Bradycardia [1] was “(0.0%)”, the Falls [1] was “(0.0%)” and the Feeling faint/dizziness [1] was “(33.3%)”. For the same compound, the Flushing [1] was “(11.1%)”, the Gastrointestinal complaints [1] was “(22.2%)” and the Gout [1] was “(0.0%)”. For the same compound, the Headache [1] was “(100.0%)”, the Insomnia [1] was “(22.2%)” and the Muscle cramps [1] was “(11.1%)”. For the same compound, the Myalgia [1] was “(0.0%)”, the Nightmares [1] was “(11.1%)” and the Pedal edema [1] was “(0.0%)”. The Skin rash/itching [1] was “(11.1%)”, the Syncope [1] was “(0.0%)” and the “Any SAEs” value [2] was 0/9. The Bradycardia [2] was 0/9, the Falls [2] was 0/9 and the Feeling faint/dizziness [2] was 3/9. For the same compound, the Flushing [2] was 1/9, the Gastrointestinal complaints [2] was 2/9 and the Gout [2] was 0/9. For the same compound, the Headache [2] was 9/9, the Insomnia [2] was 2/9 and the Muscle cramps [2] was 1/9. For the same compound, the Myalgia [2] was 0/9, the Nightmares [2] was 1/9 and the Pedal edema [2] was 0/9. The Skin rash/itching [2] was 1/9, the Syncope [2] was 0/9 and the “Any SAEs since the last visit?” value [3] was “(0.0%)”. The Bradycardia [3] was “(0.0%)”, the Falls [3] was “(11.1%)” and the Feeling faint/dizziness [3] was “(22.2%)”. The Flushing [3] was “(33.3%)”, the Gastrointestinal complaints [3] was “(0.0%)” and the Gout [3] was “(0.0%)”. The Headache [3] was “(100.0%)”, the Insomnia [3] was “(22.2%)” and the Muscle cramps [3] was “(22.2%)”. The Myalgia [3] was “(0.0%)”, the Nightmares [3] was “(11.1%)” and the Pedal edema [3] was “(0.0%)”. The Skin rash/itching [3] was “(0.0%)”, the Syncope [3] was “(0.0%)” and the “Any SAEs since the last visit?” value [4] was 0/9. The Bradycardia [4] was 0/9, the Falls [4] was 1/9 and the Feeling faint/dizziness [4] was 2/9. For the same compound, the Flushing [4] was 3/9, the Gastrointestinal complaints [4] was 0/9 and the Gout [4] was 0/9. The Headache [4] was 9/9, the Insomnia [4] was 2/9 and the Muscle cramps [4] was 2/9. The Myalgia [4] was 0/9, the Nightmares [4] was 1/9 and the Pedal edema [4] was 0/9. The Skin rash/itching [4] was 0/9, the Syncope [4] was 0/9 and the “Any SAEs since the last visit?” value (Week 4, % of participants) was “(0.0%)”. For the same compound, the Bradycardia (Week 4, % of participants) was “(0.0%)”, the Falls (Week 4, % of participants) was “(0.0%)” and the Feeling faint/dizziness (Week 4, % of participants) was “(22.2%)”. The Flushing (Week 4, % of participants) was “(11.1%)”, the Gastrointestinal complaints (Week 4, % of participants) was “(11.1%)” and the Gout (Week 4, % of participants) was “(0.0%)”. For the same compound, the Headache (Week 4, % of participants) was “(100.0%)”, the Insomnia (Week 4, % of participants) was “(22.2%)” and the Muscle cramps (Week 4, % of participants) was “(0.0%)”. For the same compound, the Myalgia (Week 4, % of participants) was “(0.0%)”, the Nightmares (Week 4, % of participants) was “(0.0%)” and the Pedal edema (Week 4, % of participants) was “(0.0%)”. The Skin rash/itching (Week 4, % of participants) was “(0.0%)”, the Syncope (Week 4, % of participants) was “(0.0%)” and the “Any SAEs since the last visit?” value (Week 4, n/N participants) was 0/9. For the same compound, the Bradycardia (Week 4, n/N participants) was 0/9, the Falls (Week 4, n/N participants) was 0/9 and the Feeling faint/dizziness (Week 4, n/N participants) was 2/9. The Flushing (Week 4, n/N participants) was 1/9, the Gastrointestinal complaints (Week 4, n/N participants) was 1/9 and the Gout (Week 4, n/N participants) was 0/9. For the same compound, the Headache (Week 4, n/N participants) was 9/9, the Insomnia (Week 4, n/N participants) was 2/9 and the Muscle cramps (Week 4, n/N participants) was 0/9. The Myalgia (Week 4, n/N participants) was 0/9, the Nightmares (Week 4, n/N participants) was 0/9 and the Pedal edema (Week 4, n/N participants) was 0/9. The Skin rash/itching (Week 4, n/N participants) was 0/9, the Syncope (Week 4, n/N participants) was 0/9 and the “Any SAEs since the last visit?” value (Week 8, % of participants) was “(0.0%)”. For the same compound, the Bradycardia (Week 8, % of participants) was “(0.0%)”, the Falls (Week 8, % of participants) was “(0.0%)” and the Feeling faint/dizziness (Week 8, % of participants) was “(11.1%)”. For the same compound, the Flushing (Week 8, % of participants) was “(11.1%)”, the Gastrointestinal complaints (Week 8, % of participants) was “(11.1%)” and the Gout (Week 8, % of participants) was “(0.0%)”. For the same compound, the Headache (Week 8, % of participants) was “(88.9%)”, the Insomnia (Week 8, % of participants) was “(22.2%)” and the Muscle cramps (Week 8, % of participants) was “(0.0%)”. For the same compound, the Myalgia (Week 8, % of participants) was “(0.0%)”, the Nightmares (Week 8, % of participants) was “(0.0%)” and the Pedal edema (Week 8, % of participants) was “(0.0%)”. For the same compound, the Skin rash/itching (Week 8, % of participants) was “(0.0%)”, the Syncope (Week 8, % of participants) was “(0.0%)” and the “Any SAEs since the last visit?” value (Week 8, n/N participants) was 0/9. For the same compound, the Bradycardia (Week 8, n/N participants) was 0/9, the Falls (Week 8, n/N participants) was 0/9 and the Feeling faint/dizziness (Week 8, n/N participants) was 1/9. The Flushing (Week 8, n/N participants) was 1/9, the Gastrointestinal complaints (Week 8, n/N participants) was 1/9 and the Gout (Week 8, n/N participants) was 0/9. For the same compound, the Headache (Week 8, n/N participants) was 8/9, the Insomnia (Week 8, n/N participants) was 2/9 and the Muscle cramps (Week 8, n/N participants) was 0/9. For the same compound, the Myalgia (Week 8, n/N participants) was 0/9, the Nightmares (Week 8, n/N participants) was 0/9 and the Pedal edema (Week 8, n/N participants) was 0/9. For the same compound, the Skin rash/itching (Week 8, n/N participants) was 0/9, the Syncope (Week 8, n/N participants) was 0/9 and the “Any SAEs since the last visit?” value (Week 12, % of participants) was “(0.0%)”. The Bradycardia (Week 12, % of participants) was “(0.0%)”, the Falls (Week 12, % of participants) was “(0.0%)” and the Feeling faint/dizziness (Week 12, % of participants) was “(0.0%)”. The Flushing (Week 12, % of participants) was “(0.0%)”, the Gastrointestinal complaints (Week 12, % of participants) was “(22.2%)” and the Gout (Week 12, % of participants) was “(0.0%)”. The Headache (Week 12, % of participants) was “(88.9%)”, the Insomnia (Week 12, % of participants) was “(22.2%)” and the Muscle cramps (Week 12, % of participants) was “(11.1%)”. For the same compound, the Myalgia (Week 12, % of participants) was “(0.0%)”, the Nightmares (Week 12, % of participants) was “(11.1%)” and the Pedal edema (Week 12, % of participants) was “(0.0%)”. The Skin rash/itching (Week 12, % of participants) was “(11.1%)”, the Syncope (Week 12, % of participants) was “(0.0%)” and the “Any SAEs since the last visit?” value (Week 12, n/N participants) was 0/9. The Bradycardia (Week 12, n/N participants) was 0/9, the Falls (Week 12, n/N participants) was 0/9 and the Feeling faint/dizziness (Week 12, n/N participants) was 0/9. For the same compound, the Flushing (Week 12, n/N participants) was 0/9, the Gastrointestinal complaints (Week 12, n/N participants) was 2/9 and the Gout (Week 12, n/N participants) was 0/9. For the same compound, the Headache (Week 12, n/N participants) was 8/9, the Insomnia (Week 12, n/N participants) was 2/9 and the Muscle cramps (Week 12, n/N participants) was 1/9. For the same compound, the Myalgia (Week 12, n/N participants) was 0/9, the Nightmares (Week 12, n/N participants) was 1/9 and the Pedal edema (Week 12, n/N participants) was 0/9. The Skin rash/itching (Week 12, n/N participants) was 1/9, the Syncope (Week 12, n/N participants) was 0/9 and the “Any SAEs since the last visit?” value (Week 13, % of participants) was “(0.0%)”. The Bradycardia (Week 13, % of participants) was “(0.0%)”, the Falls (Week 13, % of participants) was “(0.0%)” and the Feeling faint/dizziness (Week 13, % of participants) was “(11.1%)”. For the same compound, the Flushing (Week 13, % of participants) was “(0.0%)”, the Gastrointestinal complaints (Week 13, % of participants) was “(11.1%)” and the Gout (Week 13, % of participants) was “(0.0%)”. For the same compound, the Headache (Week 13, % of participants) was “(100.0%)”, the Insomnia (Week 13, % of participants) was “(11.1%)” and the Muscle cramps (Week 13, % of participants) was “(22.2%)”. The Myalgia (Week 13, % of participants) was “(11.1%)”, the Nightmares (Week 13, % of participants) was “(11.1%)” and the Pedal edema (Week 13, % of participants) was “(0.0%)”. The Rebound hypertension (Week 13, % of participants) was “(0.0%)”, the Skin rash/itching (Week 13, % of participants) was “(11.1%)” and the Syncope (Week 13, % of participants) was “(0.0%)”. For the same compound, the “Any SAEs since the last visit?” value (Week 13, n/N participants) was 0/9, the Bradycardia (Week 13, n/N participants) was 0/9 and the Falls (Week 13, n/N participants) was 0/9. For the same compound, the Feeling faint/dizziness (Week 13, n/N participants) was 1/9, the Flushing (Week 13, n/N participants) was 0/9 and the Gastrointestinal complaints (Week 13, n/N participants) was 1/9. The Gout (Week 13, n/N participants) was 0/9, the Headache (Week 13, n/N participants) was 9/9 and the Insomnia (Week 13, n/N participants) was 1/9. For the same compound, the Muscle cramps (Week 13, n/N participants) was 2/9, the Myalgia (Week 13, n/N participants) was 1/9 and the Nightmares (Week 13, n/N participants) was 1/9. For the same compound, the Pedal edema (Week 13, n/N participants) was 0/9, the Rebound hypertension (Week 13, n/N participants) was 0/9 and the Skin rash/itching (Week 13, n/N participants) was 1/9. For the same compound, the Syncope (Week 13, n/N participants) was 0/9, the “Any SAEs since the last visit?” value (Week 16, % of participants) was “(11.1%)” and the Bradycardia (Week 16, % of participants) was “(0.0%)”. The Falls (Week 16, % of participants) was “(11.1%)”, the Feeling faint/dizziness (Week 16, % of participants) was “(22.2%)” and the Headache (Week 16, % of participants) was “(77.8%)”. For the same compound, the Muscle cramps (Week 16, % of participants) was “(0.0%)”, the Pedal edema (Week 16, % of participants) was “(0.0%)” and the Syncope (Week 16, % of participants) was “(0.0%)”. The “Any SAEs since the last visit?” value (Week 16, n/N participants) was 1/9, the Bradycardia (Week 16, n/N participants) was 0/9 and the Falls (Week 16, n/N participants) was 1/9. The Feeling faint/dizziness (Week 16, n/N participants) was 2/9, the Headache (Week 16, n/N participants) was 7/9 and the Muscle cramps (Week 16, n/N participants) was 0/9. The Pedal edema (Week 16, n/N participants) was 0/9 and the Syncope (Week 16, n/N participants) was 0/9.
